Results published in patent US10308615B2, “Heterocyclic compounds as inhibitors of Vanin-1 enzyme” (Pfizer Inc., priority 2015, dated 2019).

What was measured:
DSS-induced colitis = assay: DSS (Dextran Sodium Sulfate)-induced colitis mouse model of IBD; assay type: in vivo, mice
Protocol: Induced Colitis Mouse Model Methods
Example 1 along with sulfasalazine was evaluated in DSS (Dextran Sodium Sulfate) —induced colitis mouse model of IBD. Experimental colitis was induced in healthy young female BALB/C mice by providing 4% DSS; molecular weight 36,000-50,000 (wt/vol) in drinking water ad-libitium for seven days followed by water alone for another seven days. At the commencement of the study, mice were between 7-8 weeks of age, weighing 18-20 g. All the mice were obtained from The Jackson Laboratory, Bar Harbor, Me. 04609 USA. The test articles Example 1 and vehicle were administered subcutaneously (sc) once a day beginning day −1 and continued till day 14. The positive control, Sulfasalazine was dosed orally (po) once a day beginning day 5 and continued till day 14 (Table 2). The body weights were recorded prior to dosing and daily thereafter for fourteen days. Clinical assessments of the mice were performed every other day beginning day 5. The clinical assessment includes body weight, stool consistency and the presence of blood in the stools and scored accordingly to the Table-3. At the end of the study mice were sacrificed using CO2 asphyxiation and colon from the colocecal junction to the anus was removed, washed and cleaned of all fecal matter using PBS, measured and weighed. The data are presented as the mean±standard error (SEM). Data were analyzed using two-way ANOVA using Bonferroni post-test. groups were considered significant at p<0.05.

human vanin-1 [1] = biological target: T1, human vanin-1 (Homo sapiens (Human), UniProt O95497); assay: Human Vanin-1 Enzyme Assay 2; assay type: biochemical; details: 1 nM human vanin-1, 10 uM substrate, 45 min
T1 sequence (O95497 22-491): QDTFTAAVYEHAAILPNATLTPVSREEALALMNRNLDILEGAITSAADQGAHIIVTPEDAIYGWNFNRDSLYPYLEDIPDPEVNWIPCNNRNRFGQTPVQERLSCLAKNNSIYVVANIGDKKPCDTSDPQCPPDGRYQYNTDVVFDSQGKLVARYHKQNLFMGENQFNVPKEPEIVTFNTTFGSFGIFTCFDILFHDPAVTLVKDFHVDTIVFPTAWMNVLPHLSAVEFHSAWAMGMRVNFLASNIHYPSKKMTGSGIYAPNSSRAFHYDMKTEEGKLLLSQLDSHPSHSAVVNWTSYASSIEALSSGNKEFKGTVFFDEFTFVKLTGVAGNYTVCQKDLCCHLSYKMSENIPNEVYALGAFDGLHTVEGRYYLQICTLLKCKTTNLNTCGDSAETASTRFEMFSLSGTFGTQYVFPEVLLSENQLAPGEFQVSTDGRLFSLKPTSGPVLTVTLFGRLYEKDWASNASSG
Outline: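 Purified CHO-expressed His/FLAG-tagged human vanin-1 extracellular domain (1 nM) cleaved pantetheine-AMC-CF3 substrate (10 uM) in pH 8.0 Tris buffer with 1.5 mM cysteamine and 1% DMSO. Fluorescence (ex 405/em 505 nm) was read after 45 min, over an 11-point half-log inhibitor series.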

human vanin-1 [2] = biological target: T1, human vanin-1; assay: Human Vanin-1 Enzyme Assay 1; assay type: biochemical; details: 25 pM human vanin-1, 50 uM pantetheine 7-amino-4-trifluoromethylcoumarin, 30 min preincubation, 60 min
Outline: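 Purified His6/FLAG-tagged extracellular domain of human vanin-1, secreted from CHO cells, at 25 pM final in 50 mM Tris-HCl pH 8.0, 50 mM KCl, 0.005% Brij-35, 1.6 mM cysteamine, 0.5% DMSO. Inhibitor preincubated 30 min at room temperature; 50 uM pantetheine-AFC substrate, 60 min, fluorescence at 405/510 nm; 11-point four-fold dilution series.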

human vanin-1 [3] = biological target: T1, human vanin-1; assay: Human Vanin-1 Enzyme Assay 3; assay type: biochemical; details: 2 nM human vanin-1, 10 uM substrate, 15 min
Outline: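 His/FLAG-tagged extracellular domain of human vanin-1 from CHO cells, used at 2 nM final, with 10 uM pantetheine-AFC substrate. Buffer: 50 mM Tris-HCl pH 8.0, 50 mM KCl, 0.005% Brij-35, 1.5 mM cysteamine, 1% DMSO. 15 min at room temperature; fluorescence read at 405/505 nm across an 11-point 2-fold dilution series.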

[4] = 50 mg/kg sc QD days -1-14, 4% DSS, female BALB/C mice

Compound	improvement in the colitis (FIG. 1-3) (DSS-induced colitis; 100 mg/kg po QD days 5-14, positive control)	IC50 (human vanin-1 [1]) [nM]	IC50 (human vanin-1 [2]) [nM]	IC50 (human vanin-1 [3]) [nM]	Disease Activity Index (DAI) (DSS-induced colitis; [4])	colon length (DSS-induced colitis; [4])	loss of body weight (DSS-induced colitis; [4])
O=C(O)c1cc(/N=N/c2ccc(S(=O)(=O)Nc3ccccn3)cc2)ccc1O [Sulfasalazine, reference compound]	improvement in the colitis						
N#Cc1cccc(C(=O)c2cnc(NCc3ccc(F)cc3)nc2)c1 [Example 31, 3-({2-[(4-fluorobenzyl)amino]pyrimidin-5-yl}carbonyl) benzonitrile]		57.2	102	14			
CC(C)(Nc1ncc(C(=O)c2ccc3c(c2)OCCO3)cn1)c1ccccc1 [Example 124, 2,3-dihydro-1,4-benzodioxin-6-yl{2-[(2-phenylpropan-2-yl)amino]pyrimidin-5-yl}methanone]		798	526	223			
O=C(c1ccccc1)c1cnc(NC2(c3cccnc3)CC2)nc1 [Example 114, phenyl(2-{[1-(pyridin-3-yl)cyclopropyl]amino}pyrimidin-5-yl)methanone]		254	380	170			
N#Cc1cccc(C(=O)c2cnc(NCc3ccc(F)cc3F)nc2)c1 [Example 30, 3-({2-[(2,4-difluorobenzyl)amino]pyrimidin-5-yl}carbonyl) benzonitrile]		35.5	36.4	16.8			
N#Cc1cccc(C(=O)c2cnc(NC3(c4cncnc4)CC3)nc2)c1 [Example 1, 3-[(2-{[1-(pyrimidin-5-yl)cyclopropyl]amino}pyrimidin-5-yl)carbonyl]benzonitrile]		7	4.1		mark improvement	mark improvement	mark improvement
NC(=O)c1cccc(CNc2ncc(C(=O)c3cccc(Cl)c3)cn2)c1 [Example 48, 3-({[5-(3-chlorobenzoyl)pyrimidin-2-yl]amino}methyl) benzamide]		357	218	398			
N#Cc1cccc(C(=O)c2cnc(NCc3ccccc3)nc2)c1 [Example 27, 3-{[2-(benzylamino)pyrimidin-5-yl]carbonyl} benzonitrile]		40.4	79.7	52.2			
N#Cc1cccc(C(=O)c2cnc(NCc3ccccc3Cl)nc2)c1 [Example 32, 3-({2-[(2-chlorobenzyl)amino]pyrimidin-5-yl}carbonyl) benzonitrile]		71.3	95.3	14.3			
O=C(c1cnc(NC2(c3ccccc3)CC2)nc1)c1cccc(C(F)(F)F)c1 [Example 66, {2-[(1-phenylcyclopropyl)amino]pyrimidin-5-yl}[3-(trifluoromethyl)phenyl]methanone]		44.8	21.3	10.6			
O=C(c1cnc(NCc2cccnc2)nc1)c1ccccc1F [Example 15, (2-fluorophenyl){2-[(pyridin-3-ylmethyl)amino]pyrimidin-5-yl}methanone]		92.4	329	170			
N#Cc1cccc(C(=O)c2cnc(NC3(c4ccccc4)CC3)nc2)c1 [Example 65, 3-({2-[(1-phenylcyclopropyl)amino]pyrimidin-5-yl}carbonyl) benzonitrile]		22.1	18.8	12			
